{"source": "paper PMC10406627", "about": "(The Journal of Biological Chemistry, 2023)", "target": "T1, N4CMT79–324 (Adineta vaga, UniProt A0AAB0B2A1)", "T1 sequence (A0AAB0B2A1 2-247)": "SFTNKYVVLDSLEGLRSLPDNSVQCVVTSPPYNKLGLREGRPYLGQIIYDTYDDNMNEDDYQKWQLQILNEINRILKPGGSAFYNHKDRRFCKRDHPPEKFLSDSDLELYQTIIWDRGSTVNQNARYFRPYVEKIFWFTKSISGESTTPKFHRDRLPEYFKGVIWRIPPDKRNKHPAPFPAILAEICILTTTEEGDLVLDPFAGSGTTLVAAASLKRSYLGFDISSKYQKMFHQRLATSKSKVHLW", "assay": "X-ray crystal structure, […] A, space group C222_[…]", "conditions": "SAM-binding site; 600 uM sinefungin preincubated, no DNA"}
{"smiles": "Nc1ncnc2c1ncn2[C@@H]1O[C@H](C[C@@H](N)CC[C@H](N)C(=O)O)[C@@H](O)[C@H]1O", "note": "[sinefungin]", "values": [{"measurement": "X-ray crystal structure, 1.49 A, space group C222_1", "result": "sinefungin binds in the SAM-binding site, and its adenosyl moiety is solvent-exposed on the surface"}]}
